Laboratory results reported in patent US7189749B2, “Substituted phenoxyacetic acids” (The Institutes for Pharmaceutical Discovery LLC, priority 1999, dated 2007).
Where two headings read alike, the source gives them in different places.

Columns and labels:
[1] = biological target: human aldose reductase (hALR2) (Homo sapiens, UniProt P15121); assay: inhibition of human aldose reductase (hALR2), methods similar to Butera et al.; assay type: biochemical
Protocol: Representative compounds of the invention were tested for their potency, selectivity and efficacy as inhibitors of human aldose reductase.

[2] = biological target: T1, human aldehyde reductase (hALR1) (Homo sapiens, UniProt P14550); assay: inhibition of human aldehyde reductase (hALR1), methods essentially of Ishii et al.; assay type: biochemical; details: for IC50: concentration required to inhibit human aldehyde reductase activity by 50%; for hALR1/hALR2: ratio of hALR1 IC50 to hALR2 IC50, selectivity
T1 sequence (P14550 1-325): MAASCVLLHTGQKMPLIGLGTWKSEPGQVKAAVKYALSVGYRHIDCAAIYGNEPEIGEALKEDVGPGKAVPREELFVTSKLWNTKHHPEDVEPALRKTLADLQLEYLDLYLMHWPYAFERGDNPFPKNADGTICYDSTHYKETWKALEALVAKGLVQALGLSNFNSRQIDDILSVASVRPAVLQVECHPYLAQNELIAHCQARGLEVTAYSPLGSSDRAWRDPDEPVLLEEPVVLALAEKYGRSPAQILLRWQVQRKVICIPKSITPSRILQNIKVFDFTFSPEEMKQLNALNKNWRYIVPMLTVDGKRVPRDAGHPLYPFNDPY
Protocol: In a second assay, a number of the same compounds were tested for their ability to inhibit aldehyde reductase (hAR1), a structurally related enzyme. […] Using this assay, the concentrations required to inhibit human aldehyde reductase activity by 50% (ICSO) were determined.
Since high potency of test compounds as inhibitors of aldose reductase is desirable, low hALR2 IC50 values are sought. On the other hand, high potency of test compounds as inhibitors of aldehyde reductase is undesirable, and high hALR1 IC50s values are sought. Accordingly, the hALR1/hALR2 ratio is used to determine the selectivity of the test compounds.

[3] = concentration required to inhibit human aldose reductase activity by 50%

| SMILES | IC50 [1, 3] [nM] | IC50 [2] [µM] | hALR1/hALR2 [2] | other results |
| --- | --- | --- | --- | --- |
| O=C(O)COc1cc(Cl)ccc1C(=O)NCc1cccc(C(F)(F)F)c1 [Example 4, [5-Chloro-2-(3-trifluoromethyl-benzylcarbamoyl)-phenoxy]-acetic acid] | 39 |  |  |  |
| O=C(O)COc1cc(Cl)ccc1C(=O)NCc1cccc([N+](=O)[O-])c1 [Example 5, [2-(3-Nitro-benzylcarbamoyl)-5-chloro-phenoxy]-acetic acid] |  |  | >4,200 | IC50 [1]: 6 nM; inhibition at 25 µM ([2]; read-out: hALR1 (aldehyde) % inhibition @ 25 μM): 19% |
| O=C(O)COc1cc(Cl)ccc1C(=O)NCc1ccc(Cl)c(Cl)c1 [Example 14, [5-Chloro-2-(3,4-dichloro-benzylcarbamoyl)-phenoxy]-acetic acid] | 34 | 18 | 530 |  |
| O=C(O)COc1ccc(Cl)cc1C(=O)NCc1ccc(Br)cc1F [Example 17, [2-(4-Bromo-2-fluoro-benzylcarbamoyl)-4-chloro-phenoxy]-acetic acid] | 46 | 18 | 390 |  |
| O=C(O)COc1ccc(F)cc1C(=O)NCc1ccc(Br)cc1F [Example 18, [2-(4-Bromo-2-fluoro-benzylcarbamoyl)-4-fluoro-phenoxy]-acetic acid] | 150 |  |  |  |
| O=C(O)COc1ccc(Br)cc1C(=O)NCc1ccc(Br)cc1F [Example 19, [4-Bromo-2-(4-bromo-2-fluoro-benzylcarbamoyl)-phenoxy]-acetic acid] | 64 |  |  |  |
| Cc1ccc(OCC(=O)O)c(C(=O)NCc2ccc(Br)cc2F)c1 [Example 20, [2-(4-Bromo-2-fluoro-benzylcarbamoyl)-4-methyl-phenoxy]-acetic acid] | 69 | 11 | 160 |  |
| O=C(O)COc1ccc([N+](=O)[O-])cc1C(=O)NCc1ccc(Br)cc1F [Example 21, [2-(4-Bromo-2-fluoro-benzylcarbamoyl)-4-nitro-phenoxy]-acetic acid] | 200 |  |  |  |
| O=C(O)COc1ccccc1C(=O)NCc1ccc(Br)cc1F [Example 23, [2-(4-Bromo-2-fluoro-benzylcarbamoyl)-phenoxy]-acetic acid] | 180 |  |  |  |
| CSc1ccc(C(=O)NCc2ccc(Br)cc2F)c(OCC(=O)O)c1 [Example 24, [2-(4-Bromo-2-fluoro-benzylcarbamoyl)-5-methylsulfanyl-phenoxy]-acetic acid] | 83 |  |  |  |
| Cc1ccc(OCC(=O)O)c(C(=O)NCc2cccc([N+](=O)[O-])c2)c1 [Example 25, [2-(3-Nitro-benzylcarbamoyl)-4-methyl-phenoxy]-acetic acid] | 11 |  | >9,100 | inhibition at 100 µM ([2]; read-out: hALR1 (aldehyde) % inhibition @ 100 μM): 48% |
| O=C(O)COc1cc(F)ccc1C(=O)NCc1ccc(Br)cc1F [Example 28, [2-(4-Bromo-2-fluoro-benzylcarbamoyl)-5-fluoro-phenoxy]-acetic acid] | 55 | 6.6 | 120 |  |
| O=C(O)COc1cc(F)c(F)cc1C(=O)NCc1ccc(Br)cc1F [Example 30, [2-(4-Bromo-2-fluoro-benzylcarbamoyl)-4,5-difluoro-phenoxy]-acetic acid] | 37 |  |  |  |
| O=C(O)COc1cc(F)ccc1C(=S)NCc1ccc(Br)cc1F [Example 33, [2-(4-Bromo-2-fluoro-benzylthiocarbamoyl)-5-fluoro-phenoxy]-acetic acid] | 34 | 33 | 970 |  |
| O=C(O)COc1ccc(Br)cc1C(=S)NCc1ccc(Br)cc1F [Example 34, [4-Bromo-2-(4-bromo-2-fluoro-benzylthiocarbamoyl)-phenoxy]-acetic acid] | 37 |  |  |  |
| O=C(O)COc1cc(F)c(F)cc1C(=S)NCc1ccc(Br)cc1F [Example 36, [2-(4-Bromo-2-fluoro-benzylthiocarbamoyl)-4,5-difluoro-phenoxy]-acetic acid] | 33 |  |  |  |
| O=C(O)COc1cc(F)ccc1C(=O)NCc1nc2c(F)c(F)cc(F)c2s1 [Example 54, {5-Fluoro-2[(4,5,7-trifluoro-benzothiazol-2-ylmethyl)carbamoyl]-phenoxy}-acetic acid] | 11 | 22 | 2,000 |  |
| O=C(O)COc1cc(F)ccc1C(=O)NCc1nc2cc(C(F)(F)F)ccc2s1 [Example 56, {5-Fluoro-2-[(5-trifluoromethyl-benzothiazol-2-ylmethyl)-carbamoyl]-phenoxy}-acetic acid] | 29 | 22 | 760 |  |
| O=C(O)COc1cc(Cl)ccc1C(=O)NCc1nc2cc(C(F)(F)F)ccc2s1 [Example 57, {5-Chloro-2-[(5-trifluoromethyl-benzothiazol-2-ylmethyl)-carbamoyl]-phenoxy}-acetic acid] | 35 |  |  |  |

More lines, in order of falling IC50 [1, 3], values ahead:

| IC50 [1, 3] [nM] | IC50 [2] [µM] | hALR1/hALR2 [2] | SMILES | other results |
| --- | --- | --- | --- | --- |
| 30 | 14 | 470 | O=C(O)COc1cc(Cl)ccc1C(=O)NCc1ccc(Br)cc1F [Example 1, [2-(4-Bromo-2-fluoro-benzylcarbamoyl)-5-chloro-phenoxy]-acetic acid] |  |
| 29 |  |  | O=C(O)COc1cc(Cl)ccc1C(=O)NCc1cc(F)cc(C(F)(F)F)c1 [Example 11, [5-Chloro-2-(3-fluoro-5-trifluoromethyl-benzylcarbamoyl)-phenoxy]-acetic acid] |  |
| 24 | 5.8 | 240 | Cc1cc(C(=O)NCc2ccc(Br)cc2F)c(OCC(=O)O)cc1F [Example 45, [2-(4-Bromo-2-fluoro-benzylcarbamoyl)-5-fluoro-4-methyl-phenoxy]-acetic acid] |  |
| 24 | 31 | 1,300 | Cc1cc(C(=S)NCc2ccc(Br)cc2F)c(OCC(=O)O)cc1F [Example 46, [2-(4-Bromo-2-fluoro-benzylthiocarbamoyl)-5-fluoro-4-methyl-phenoxy]-acetic acid] |  |
| 15 | 17 | 1,100 | O=C(O)COc1cc(F)ccc1C(=S)NCc1nc2c(F)c(F)cc(F)c2s1 [Example 55, {5-Fluoro-2-[(4,5,7-trifluoro-benzothiazol-2-ylmethyl)-thiocarbamoyl]-phenoxy}-acetic acid] |  |
| 12 |  |  | O=C(O)COc1ccc(OC(F)(F)F)cc1C(=S)NCc1cccc([N+](=O)[O-])c1 [Example 35, [2-(3-Nitro-benzylthiocarbamoyl)-4-trifluoromethoxy-phenoxy]-acetic acid] |  |
| 11 | 12 | 1,100 | O=C(O)COc1cc(F)c(-c2ccccc2)cc1C(=S)NCc1cccc([N+](=O)[O-])c1 [Example 51, [5-(3-Nitro-benzylthiocarbamoyl)-2-fluoro-biphenyl-4-yloxy]-acetic acid] |  |
| 9 |  |  | O=C(O)COc1ccc(OC(F)(F)F)cc1C(=O)NCc1cccc([N+](=O)[O-])c1 [Example 26, [2-(3-nitro-benzylcarbamoyl)-4-trifluoromethoxy-phenoxy]-acetic acid] |  |
| 8 | 34 | 4,300 | O=C(O)COc1cc(F)ccc1C(=O)NCc1cccc([N+](=O)[O-])c1 [Example 27, [5-Fluoro-2-(3-nitro-benzylcarbamoyl)-phenoxy]-acetic acid] |  |
| 8 |  |  | Cc1ccc(CNC(=O)c2ccc(F)cc2OCC(=O)O)cc1[N+](=O)[O-] [Example 29, [5-Fluoro-2-(4-methyl-3-nitro-benzylcarbamoyl)-phenoxy]-acetic acid] |  |
| 8 |  |  | Cc1cc(C(=O)NCc2cccc([N+](=O)[O-])c2)c(OCC(=O)O)cc1F [Example 47, [2-(3-Nitro-benzylcarbamoyl)-5-fluoro-4-methyl-phenoxy]-acetic acid] |  |
| 7 |  |  | Cc1cc(C(=S)NCc2cccc([N+](=O)[O-])c2)c(OCC(=O)O)cc1F [Example 48, [2-(3-Nitro-benzylthiocarbamoyl)-5-fluoro-4-methyl-phenoxy]-acetic acid] |  |
| 7 | 14 | 2,000 | O=C(O)COc1cc(F)c(-c2ccccc2)cc1C(=O)NCc1cccc([N+](=O)[O-])c1 [Example 50, [5-(3-Nitro-benzylcarbamoyl)-2-fluoro-biphenyl-4-yloxy]-acetic acid] |  |
| 7 |  |  | N#Cc1cc(C(=O)NCc2cccc([N+](=O)[O-])c2)c(OCC(=O)O)cc1F [Example 52, [2-(3-Nitro-benzylcarbamoyl)-4-cyano-5-fluoro-phenoxy]-acetic acid] |  |
| 7 | 54 |  | O=C(O)COc1cc(F)c(N2CCOCC2)cc1C(=O)NCc1cccc([N+](=O)[O-])c1 [Example 53, [2-(3-Nitro-benzylcarbamoyl)-5-fluoro-4-morpholin-4-yl-phenoxy]-acetic acid] |  |
| 6 | 35 | 5,800 | O=C(O)COc1cc(F)ccc1C(=S)NCc1cccc([N+](=O)[O-])c1 [Example 32, [5-Fluoro-2-(3-nitro-benzylthiocarbamoyl)-phenoxy]-acetic acid] |  |
| 6 | 44 | 7,300 | O=C(O)COc1cc(F)c(Br)cc1C(=O)NCc1cccc([N+](=O)[O-])c1 [Example 49, [4-Bromo-5-fluoro-2-(3-nitro-benzylcarbamoyl)-phenoxy]-acetic acid] |  |
